Paper PMC6751662, “Pharmacological and functional similarities of the human neuropeptide Y system in C. elegans challenges phylogenetic views on the FLP/NPR system” (Cell Communication and Signaling : CCS, 2019)

Columns and labels:
PrRPR = biological target: T1, PrRPR (Homo sapiens, UniProt P49683); assay: IP accumulation assay, endogenous Gαq coupling, PrRPR; assay type: cell-based; conditions: transiently transfected HEK293 cells, mean of at least three independent experiments
T1 construct: expressed in transfected cells; host or cells: HEK293, transient
T1 sequence (P49683 1-370): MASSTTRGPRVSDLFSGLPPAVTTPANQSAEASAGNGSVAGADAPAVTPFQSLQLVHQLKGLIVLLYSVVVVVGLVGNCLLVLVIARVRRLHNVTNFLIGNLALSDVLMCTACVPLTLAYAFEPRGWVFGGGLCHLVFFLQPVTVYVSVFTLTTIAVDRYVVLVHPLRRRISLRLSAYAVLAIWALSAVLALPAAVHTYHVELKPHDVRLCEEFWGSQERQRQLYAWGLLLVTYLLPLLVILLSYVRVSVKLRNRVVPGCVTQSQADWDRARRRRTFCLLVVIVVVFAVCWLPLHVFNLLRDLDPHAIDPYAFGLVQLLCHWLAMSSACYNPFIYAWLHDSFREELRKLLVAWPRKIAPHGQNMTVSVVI
Procedure: (§1) For measuring IP accumulation, HEK293 cells grown to 70–80% confluency in 6-well plates were transiently co-transfected using Metafectene Pro (2.5 μl/μg DNA; Biontex) with plasmids containing receptor and/or mock (empty pcDNA3.1) (for endogenous Gq-coupling) using 4 μg total DNA in a ratio of 3:1 following the manufacturer’s instructions. For testing Gα16- and GαΔ6qi4myr-coupling, plasmids encoding the corresponding Gα protein were co-transfected instead of mock. Gα16 is naturally promiscuous and stimulates the phospholipase C (PLC) pathway leading to IP production, while the exchange of the C-terminal four amino acids of Gαq for the corresponding residues of Gαi1 in the chimeric GαΔ6qi4myr confers the ability to couple to Gi/o protein-preferring receptors but still stimulate PLC, thus specifically redirecting downstream cellular signaling. 16 h post transfection, the cells were seeded into white 384-well plates at a density of 20,000 cells/well. Media was removed 24 h later and the cells were incubated with the indicated concentration of peptides for 1 h in HBSS + 20 mM LiCl. IP accumulation was measured with the HTRF-based IP-One Gq kit (Cisbio) on a microplate reader (Tecan Spark).
(§2) For in vitro activation, data is presented as mean ± SEM of at least three independent experiments conducted in technical triplicate. […] For the C. elegans NPRs, we considered the strongest response elicited by any of the peptides downstream of a particular receptor as the receptor’s maximal signal. This may or may not be the biological maximum that can be reached by the ‘true’ endogenous agonist. For the human receptors, the response to the established endogenous agonist reflected the maximal signal.

[1] = Solubility of crude peptides in RP-HPLC purification solvents; assay type: physicochemical; conditions: for solubility of crude peptide: H2O + 0.1% TFA / acetonitrile + 0.08% TFA (RP-HPLC purification conditions)
Procedure: C-terminally amidated peptides were synthesized in 15 μmol scale by solid-phase peptide synthesis following the Fmoc/tert-butyl strategy (reviewed in [18]) on Rink amide resin using an automated Syro II peptide synthesizer (MultiSynTech). Automated coupling reactions were performed as double couplings using 8 eq Nα-protected amino acid, activated in situ with equimolar amounts of Oxyma and […] in dimethylformamide (DMF) for 30 min. Automated Fmoc deprotection was carried out with 40% (v/v) piperidine in DMF for 3 min and 20% (v/v) piperidine in DMF for 10 min. Reactive side chains of amino acids were protected by tert-butyl (tBu for Tyr, Ser, Asp, Glu, Thr), trityl (Trt for Asn, Gln, His), 2,2,4,6,7-pentamethyldihydrobenzofuran-5-sulfonyl (Pbf for Arg) and tert-butyloxycarbonyl (Boc for Lys). Peptides were cleaved off the resin using trifluoroacetic acid (TFA)/H2O/triisopropylsilane (90/5/5, v/v/v) for 2.5 h at room temperature and precipitated in ice cold diethyl ether. All peptides were purified to > 95% purity by RP-HPLC (Shimadzu) using a Phenomenex Jupiter 10 μm Proteo 90 Å (C12) column. For most peptides, linear gradients of H2O + 0.1% trifluoroacetic acid (TFA) (eluent A) and acetonitrile (ACN) + 0.08% TFA (eluent B) were applied at a flow rate of 10 ml/minute. […] FLP-27, FLP-33, and FLP-34 were solubilized by ultrasonication at 50 °C for 10 min and subsequently purified under standard solvent conditions used pre-heated HPLC systems. […] Peptide identity was verified by matrix-assisted laser desorption/time of flight (MALDI-ToF; Ultraflex III MALDI-ToF/ToF, Bruker Daltonics) mass spectrometry, and peptide purity was evaluated with analytical RP-HPLC.

Y1R = biological target: T2, Y1R (Homo sapiens, UniProt P25929); assay: IP accumulation assay, chimeric GαΔ6qi4myr, Y1R; assay type: cell-based; conditions: chimeric GαΔ6qi4myr co-transfected, transiently transfected HEK293 cells, mean of at least three independent experiments
T2 construct: expressed in transfected cells; host or cells: HEK293, transient
T2 sequence (P25929 1-384): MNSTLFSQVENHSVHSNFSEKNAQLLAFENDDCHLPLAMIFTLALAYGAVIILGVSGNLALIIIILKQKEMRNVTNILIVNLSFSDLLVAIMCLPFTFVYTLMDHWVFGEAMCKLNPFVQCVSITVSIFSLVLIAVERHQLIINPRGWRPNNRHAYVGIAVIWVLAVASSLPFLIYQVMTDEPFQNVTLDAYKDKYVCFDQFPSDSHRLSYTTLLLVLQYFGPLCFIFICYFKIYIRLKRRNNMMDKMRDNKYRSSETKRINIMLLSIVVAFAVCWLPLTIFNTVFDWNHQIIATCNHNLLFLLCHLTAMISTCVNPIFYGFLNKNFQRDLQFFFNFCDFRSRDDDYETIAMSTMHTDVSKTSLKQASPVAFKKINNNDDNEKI
Procedure: as §1, §2

Y2R = biological target: T3, Y2R (Homo sapiens, UniProt P49146); assay: IP accumulation assay, chimeric GαΔ6qi4myr, Y2R; assay type: cell-based; conditions: chimeric GαΔ6qi4myr co-transfected, transiently transfected HEK293 cells, mean of at least three independent experiments
T3 construct: expressed in transfected cells; host or cells: HEK293, transient
T3 sequence (P49146 1-381): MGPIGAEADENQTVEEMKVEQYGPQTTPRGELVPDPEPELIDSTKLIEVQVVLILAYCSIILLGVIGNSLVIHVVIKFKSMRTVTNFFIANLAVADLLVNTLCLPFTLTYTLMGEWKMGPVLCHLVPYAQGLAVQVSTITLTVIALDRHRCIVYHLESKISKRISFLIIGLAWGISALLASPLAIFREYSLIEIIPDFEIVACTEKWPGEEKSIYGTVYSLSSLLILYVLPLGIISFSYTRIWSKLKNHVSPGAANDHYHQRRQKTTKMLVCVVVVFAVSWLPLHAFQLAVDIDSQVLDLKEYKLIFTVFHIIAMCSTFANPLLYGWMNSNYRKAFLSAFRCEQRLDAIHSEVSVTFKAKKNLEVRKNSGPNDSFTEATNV
Procedure: as §1, §2

NPFF2R = biological target: T4, NPFF2R (Homo sapiens, UniProt Q9Y5X5); assay: IP accumulation assay, chimeric GαΔ6qi4myr, NPFF2R; assay type: cell-based; conditions: chimeric GαΔ6qi4myr co-transfected, transiently transfected HEK293 cells, mean of at least three independent experiments
T4 construct: expressed in transfected cells; host or cells: HEK293, transient
T4 sequence (Q9Y5X5 103-522): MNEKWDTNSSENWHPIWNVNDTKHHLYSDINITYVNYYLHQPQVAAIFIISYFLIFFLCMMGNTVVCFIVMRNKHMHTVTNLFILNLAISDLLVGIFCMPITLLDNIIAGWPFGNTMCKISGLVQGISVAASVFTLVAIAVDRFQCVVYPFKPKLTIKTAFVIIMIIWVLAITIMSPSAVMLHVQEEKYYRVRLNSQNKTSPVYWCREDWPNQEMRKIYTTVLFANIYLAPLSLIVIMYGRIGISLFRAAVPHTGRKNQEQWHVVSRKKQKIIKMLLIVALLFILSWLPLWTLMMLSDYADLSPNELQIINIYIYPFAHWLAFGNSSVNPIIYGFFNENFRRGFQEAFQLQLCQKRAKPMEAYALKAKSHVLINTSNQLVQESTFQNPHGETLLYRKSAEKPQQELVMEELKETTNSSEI
Procedure: as §1, §2

Substance	IP accumulation, x-fold of basal (mean), PrRPR# (PrRPR; 0.1 µM peptide)	IP accumulation, x-fold of basal (mean), PrRPR# (PrRPR; 10 µM peptide)	solubility of crude peptide [1]	IP accumulation, x-fold of basal (mean), Y1R (Y1R; 0.1 µM peptide)	IP accumulation, x-fold of basal (mean), Y1R (Y1R; 10 µM peptide)	IP accumulation, x-fold of basal (mean), Y2R (Y2R; 0.1 µM peptide)	IP accumulation, x-fold of basal (mean), Y2R (Y2R; 10 µM peptide)	IP accumulation, x-fold of basal (mean), NPFF2R (NPFF2R; 0.1 µM peptide)	IP accumulation, x-fold of basal (mean), NPFF2R (NPFF2R; 10 µM peptide)	solubility of crude peptide at basic pH ([1]; 10 mM (NH4)2CO3, pH 8.5, used for purification)
APLEGFEDMSGFLRTIDGIQKPRF-NH2 [FLP-33, NPY-like C. elegans FLP with C-terminal RxRF/Ya signature]	0.91 x-fold of basal	0.88 x-fold of basal	partly insoluble							
NPENDTPFGTMRF-NH2 [FLP-3-4, C. elegans FMRFamide-like peptide, C-terminally amidated, synthesized by SPPS]	1.86 x-fold of basal	0.96 x-fold of basal	partly insoluble	1.54 x-fold of basal	3.82 x-fold of basal	1.01 x-fold of basal	0.70 x-fold of basal	1.58 x-fold of basal	3.28 x-fold of basal	improved solubility at basic pH
EASAFGDIIGELKGKGLGGRMRF-NH2 [FLP-27, NPY-like C. elegans FLP with C-terminal RxRF/Ya signature]	0.93 x-fold of basal	0.91 x-fold of basal	partly insoluble							
